Consider 43 sequences from patent publication US20230293630A1, “Coronavirus T Cell Epitopes and Uses Thereof” (priority 2020, published 2023).

The subject of the first experiment is SARS-CoV-2-specific CD4+ T cells (OX40+CD137+) in PBMC. It is filed as cell-based, human.
Conditions: not given
For PSGTWLTYTGAIKLD [SEQ ID NO 248], the “Frequency of response (%)” value is recorded as 42%, the “Magnitude by # of responding donors” value is reported as 517 and the Sum of response stood at 2583.

Staying with this experiment, now noted: CD4+ T cell epitopes identified by AIM assay; percent of tested donors responding.
In the case of ELDKYFKNHTSPDVD, the “Frequency of response (%)” value worked out at 7%.
On to NFSQILPDPSKPSKR, for which the “Frequency of response (%)” value amounted to 33%.
With FTVEKGIYQTSNFRV, the “Frequency of response (%)” value came out at 9%.
QSINFVRIIMRLWLC [SEQ ID NO 252]: the “Frequency of response (%)” value was 21%.
On the same count and under the same terms, next, FLGIITTVAAFHQEC [SEQ ID NO 254]: 9%; IGINITRFQTLLALH: 9%; TQLNRALTGIAVEQD: 8%.
Consider SFIEDLLFNKVTLAD, for which the “Frequency of response (%)” value is 17%.

The same experiment, now with this note: CD4+ T cell epitopes identified by AIM assay; share of donors responding.
In the case of GIVNNTVYDPLQPEL, the “Frequency of response (%)” value is recorded as 7%.
The same measure, in the same setting: in the case of IDAYPLTKHPNQEYA it was 14%; in that of YCIDGALLTKSSEYK, 7%; in that of QKKQQTVTLLPAADL, 7%.
On to VNNSYECDIPIGAGI, for which the “Frequency of response (%)” value is recorded as 11%.
Regarding HKNNKSWMESEFRVY, the “Frequency of response (%)” value came to 9%.
On to KEITVATSRTLSYYK, for which the “Frequency of response (%)” value is on record as 54%.
YSRYRIGNYKLNTDH: the “Frequency of response (%)” value is listed as 15%.
Regarding VVIKVCEFQFCNDPF, the “Frequency of response (%)” value turned out to be 9%.
On the same count and under the same terms, in the case of ARKSAPLIELCVDEA it was 18%.
Same read-out and setting: in the case of LTGTGVLTESNKKFL it was 7%.
Still for that read-out and setting: next, TNCYDYCIPYNSVTS: 7%; VSSQCVNLTTRTQLP: 8%; TTVAAFHQECSLQSC: 18%.
Regarding RFASVYAWNRKRISN, the “Frequency of response (%)” value is recorded as 27%.
The same measure, in the same setting: next, SVLHSTQDLFLPFFS: 15%; NLVRDLPQGFSALEP: 27%.
On the same count and under the same terms, in the case of SFLGRYMSALNHTKK it was 9%; in that of TFTRSTNSRIKASMP, 8%; in that of VNARLRAKHYVYIGD, 8%.
Still for that read-out and setting: in the case of YYRRATRRIRGGDGK it was 23%; in that of AAEASKKPRQKRTAT, 23%.
For the sequence YVVDDPCPIHFYSKW, the “Frequency of response (%)” value was determined as 36%.
In the case of LYLYALVYFLQSINF, the “Frequency of response (%)” value is reported as 21%.
Same read-out and setting: next, NAPRITFGGPSDSTG: 6%; LPDPSKPSKRSFIED: 8%; PDLNGDVVAIDYKHY: 15%.
For MFTPLVPFWITIAYI, the “Frequency of response (%)” value is given as 8%.
On the same count and under the same terms, in the case of SWFTALTQHGKEDLK it was 23%.
On to RLWLCWKCRSKNPLL, for which the “Frequency of response (%)” value turned out to be 7%.
On the same count and under the same terms, next, VPGLPGTILRTTNGD: 9%.
Same read-out and setting: in the case of IPFAMQMAYRFNGIG it was 18%; in that of RGHLRIAGHHLGRCD, 42%; in that of LTQYNRYLALYNKYK, 8%.

The experiment is the same for the next values; noted with them: CD4+ T cell epitopes identified by AIM assay; sum of response per responding donor.
In the case of GIVNNTVYDPLQPEL, the “Magnitude by # of responding donors” value was determined as 164.
For the sequence IDAYPLTKHPNQEYA, the “Magnitude by # of responding donors” value was determined as 115.
As to YCIDGALLTKSSEYK, the “Magnitude by # of responding donors” value is reported as 119.
Still for that read-out and setting: next, QKKQQTVTLLPAADL: 712; VNNSYECDIPIGAGI: 398.
Still for that read-out and setting: next, HKNNKSWMESEFRVY: 572; KEITVATSRTLSYYK: 516; YSRYRIGNYKLNTDH: 276.
The same measure, in the same setting: in the case of ELDKYFKNHTSPDVD it was 361; in that of VVIKVCEFQFCNDPF, 2088.
For the sequence ARKSAPLIELCVDEA, the “Magnitude by # of responding donors” value is given as 329.
As for LTGTGVLTESNKKFL, the “Magnitude by # of responding donors” value amounted to 427.
Regarding TNCYDYCIPYNSVTS, the “Magnitude by # of responding donors” value turned out to be 402.
The same measure, in the same setting: in the case of NFSQILPDPSKPSKR it was 647; in that of FTVEKGIYQTSNFRV, 1202.
Regarding VSSQCVNLTTRTQLP, the “Magnitude by # of responding donors” value is 274.
With TTVAAFHQECSLQSC, the “Magnitude by # of responding donors” value is 1008.
Consider RFASVYAWNRKRISN, for which the “Magnitude by # of responding donors” value was 241.
Same read-out and setting: in the case of SVLHSTQDLFLPFFS it was 305.
Same read-out and setting: in the case of NLVRDLPQGFSALEP it was 607; in that of SFLGRYMSALNHTKK, 219.
Still for that read-out and setting: next, QSINFVRIIMRLWLC [SEQ ID NO 252]: 168.
In the case of TFTRSTNSRIKASMP, the “Magnitude by # of responding donors” value amounted to 120.
Still for that read-out and setting: next, VNARLRAKHYVYIGD: 116; FLGIITTVAAFHQEC [SEQ ID NO 254]: 185; YYRRATRRIRGGDGK: 197.
For IGINITRFQTLLALH, the “Magnitude by # of responding donors” value is 177.
Take AAEASKKPRQKRTAT: the “Magnitude by # of responding donors” value is recorded as 179.
The same measure, in the same setting: next, YVVDDPCPIHFYSKW: 872; LYLYALVYFLQSINF: 124; NAPRITFGGPSDSTG: 259.
Same read-out and setting: next, LPDPSKPSKRSFIED: 109.
On the same count and under the same terms, next, PDLNGDVVAIDYKHY: 215; MFTPLVPFWITIAYI: 602.
Consider SWFTALTQHGKEDLK, for which the “Magnitude by # of responding donors” value worked out at 1088.
With TQLNRALTGIAVEQD, the “Magnitude by # of responding donors” value stood at 260.
On the same count and under the same terms, next, RLWLCWKCRSKNPLL: 290.
On the same count and under the same terms, in the case of VPGLPGTILRTTNGD it was 439.
For IPFAMQMAYRFNGIG, the “Magnitude by # of responding donors” value is 187.
As for SFIEDLLFNKVTLAD, the “Magnitude by # of responding donors” value is listed as 406.
Turning to RGHLRIAGHHLGRCD, the “Magnitude by # of responding donors” value worked out at 472.
For the sequence LTQYNRYLALYNKYK, the “Magnitude by # of responding donors” value amounted to 638.

Staying with this experiment, now noted: CD4+ T cell epitopes identified by AIM assay; total response.
In turn, GIVNNTVYDPLQPEL registered a Sum of response of 164.
For IDAYPLTKHPNQEYA, the Sum of response is given as 229.
On to YCIDGALLTKSSEYK, for which the Sum of response stood at 119.
Same read-out and setting: in the case of QKKQQTVTLLPAADL it was 712; in that of VNNSYECDIPIGAGI, 398; in that of HKNNKSWMESEFRVY, 572.
As for KEITVATSRTLSYYK, the Sum of response came to 3615.
Still for that read-out and setting: in the case of YSRYRIGNYKLNTDH it was 551.
With VVIKVCEFQFCNDPF, the Sum of response is on record as 2088.
With ARKSAPLIELCVDEA, the Sum of response amounted to 658.
LTGTGVLTESNKKFL displayed a Sum of response of 427.
The same measure, in the same setting: in the case of TNCYDYCIPYNSVTS it was 402; in that of VSSQCVNLTTRTQLP, 274; in that of TTVAAFHQECSLQSC, 2016.
On the same count and under the same terms, next, RFASVYAWNRKRISN: 722.
Consider SVLHSTQDLFLPFFS, for which the Sum of response is recorded as 609.
Still for that read-out and setting: in the case of NLVRDLPQGFSALEP it was 1822; in that of SFLGRYMSALNHTKK, 219.
Same read-out and setting: in the case of TFTRSTNSRIKASMP it was 120.
Sequence VNARLRAKHYVYIGD registered a Sum of response of 116.
Regarding YYRRATRRIRGGDGK, the Sum of response is reported as 592.
Same read-out and setting: next, AAEASKKPRQKRTAT: 537.
Same read-out and setting: in the case of YVVDDPCPIHFYSKW it was 3488.
In turn, LYLYALVYFLQSINF came in with a Sum of response of 371.
Still for that read-out and setting: next, NAPRITFGGPSDSTG: 259; LPDPSKPSKRSFIED: 109; PDLNGDVVAIDYKHY: 430.
Same read-out and setting: in the case of MFTPLVPFWITIAYI it was 602.
On the same count and under the same terms, next, SWFTALTQHGKEDLK: 3265; RLWLCWKCRSKNPLL: 290; VPGLPGTILRTTNGD: 439.
With IPFAMQMAYRFNGIG, the Sum of response stood at 373.
With RGHLRIAGHHLGRCD, the Sum of response was 2359.
Take LTQYNRYLALYNKYK: the Sum of response is recorded as 638.

Staying with this experiment, now noted: CD4+ T cell epitopes identified by AIM assay; total response summed over donors.
ELDKYFKNHTSPDVD returned a Sum of response of 361.
For NFSQILPDPSKPSKR, the Sum of response worked out at 2589.
With FTVEKGIYQTSNFRV, the Sum of response is reported as 1202.
For the sequence QSINFVRIIMRLWLC [SEQ ID NO 252], the Sum of response is given as 505.
FLGIITTVAAFHQEC [SEQ ID NO 254] displayed a Sum of response of 185.
IGINITRFQTLLALH: the Sum of response is given as 177.
Regarding TQLNRALTGIAVEQD, the Sum of response is recorded as 260.
Same read-out and setting: in the case of SFIEDLLFNKVTLAD it was 812.
